For orientation: IC50 means the concentration that inhibits the measured activity by half. The term half-life denotes the time in which the quantity being followed falls by half. By AUC is commonly meant the area under the concentration-time curve, a measure of exposure. High values mean high exposure, low ones low exposure. By Cmax is commonly meant the peak of the concentration-time curve. A word on the Tmax: it is the time from dosing to the highest level.

We go through 16 molecules from patent publication US20230303570A1, “KINASE INHIBITORS AND USES THEREOF” (ABM Therapeutics Corporation, priority 2020, published 2023).

In one data set the target is HPK1 (MAP4K1) (Homo sapiens, UniProt Q92918). In words: HPK1 (MAP4K1) kinase Lantha screen assay. Format: biochemical. A digest of the protocol:
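Recombinant MAP4K1 preincubated 10 min with compound (6-point dilution, duplicates) in 50 mM HEPES pH 7.5, 10 mM MgCl2, then reacted with Fluorescein-PKC substrate and ATP for 90 min at room temperature. Antibody detection solution stopped reaction; after 60 min, TR-FRET read at ex 340 nm, em 520/495 nm.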

A further data set addresses c-Kit (Homo sapiens, UniProt P10721). In words: cKit kinase mobility shift assay. It is filed as biochemical. As for the experimental part:
(§1) The effect of the compounds on the activity of cKit, RET and AXL kinases were assessed by Mobility shift assay. • 1. 1× kinase base buffer and stop buffer for testing kinases were prepared • 1-1) 1× Kinase base buffer (50 mM HEPES, pH 7.5, 0.01% Triton X-100) • 1-2) Stop buffer (100 mM HEPES, pH 7.5, 0.015% Brij-35, 0.2% Coating Reagent #3, 50 mM EDTA) • 2. Compound and assay plate preparation: the compound was diluted to 50× of the final desired highest inhibitor concentration in reaction by 100% DMSO. 100 μl of this compound dilution was transferred to a well in a 96-well plate. For example, if the highest desired concentration was 5 μM, then 250 μM of compound DMSO solution was prepared in this step. For all compounds, the compound was serially diluted by transferring 10 μl to 70 μl of 100 DMSO in the next well and so forth for a total of 5 concentrations. 100 μl of 100% DMSO was added to two empty wells for no compound control and no enzyme control in the same 96-well plate. The plate was labeled as source plate. The intermediate plate was prepared by transferring 10 μl of compound from source plate to a new 96-well plate as the intermediate plate, adding 90 μl of 1× kinase buffer to each well of the intermediate plate, mixing the compounds in intermediate plate for 10 min on shaker. 5 μl of each well from the 96-well intermediate plate were transferred to a 384-well plate in duplicates. For example, A1 of the 96-well plate was transferred to A1 and A2 of the 384-well plate. A2 of the 96-well plate was transferred to A3 and A4 of the 384-well plate, and so on. • 4. Kinase reaction: The assay plate already contained 5 μl of compound in 10% DMSO. A 2.5× enzyme solution was prepared by adding kinases (cKit, RET, or AXL) and DTT in 1× kinase base buffer. 2.5× enzyme solution was transferred to the assay plate (by adding 10 μl of 2.5× enzyme solution to each well of the 384-well assay plate). The plate was incubated at room temperature for 10 min. 2.5× peptide solution was prepared by adding FAM-labeled peptide, ATP, MgCl2 in the 1× kinase base buffer. 2.5× peptide solution was added to the assay plate by adding 10 μl of 2.5× peptide solution to each well of the 384-well assay plate. The plate was incubated at 28° C. for the specified period of time. 25 μl of stop buffer was added to stop reaction. Data was collected on Caliper.

A short description of data set [1]: Mouse pharmacokinetics study (intravenous and oral). It is filed as in vivo. To be noted: CD-1 mice. The text has this:
The test articles were formulated in […] Hydroxypropyl-beta-cyclodextrin, either as a clear solution or fine suspension.

The target of the next data set is T1, Axl (Homo sapiens, UniProt P30530).
T1 sequence (P30530 26-894): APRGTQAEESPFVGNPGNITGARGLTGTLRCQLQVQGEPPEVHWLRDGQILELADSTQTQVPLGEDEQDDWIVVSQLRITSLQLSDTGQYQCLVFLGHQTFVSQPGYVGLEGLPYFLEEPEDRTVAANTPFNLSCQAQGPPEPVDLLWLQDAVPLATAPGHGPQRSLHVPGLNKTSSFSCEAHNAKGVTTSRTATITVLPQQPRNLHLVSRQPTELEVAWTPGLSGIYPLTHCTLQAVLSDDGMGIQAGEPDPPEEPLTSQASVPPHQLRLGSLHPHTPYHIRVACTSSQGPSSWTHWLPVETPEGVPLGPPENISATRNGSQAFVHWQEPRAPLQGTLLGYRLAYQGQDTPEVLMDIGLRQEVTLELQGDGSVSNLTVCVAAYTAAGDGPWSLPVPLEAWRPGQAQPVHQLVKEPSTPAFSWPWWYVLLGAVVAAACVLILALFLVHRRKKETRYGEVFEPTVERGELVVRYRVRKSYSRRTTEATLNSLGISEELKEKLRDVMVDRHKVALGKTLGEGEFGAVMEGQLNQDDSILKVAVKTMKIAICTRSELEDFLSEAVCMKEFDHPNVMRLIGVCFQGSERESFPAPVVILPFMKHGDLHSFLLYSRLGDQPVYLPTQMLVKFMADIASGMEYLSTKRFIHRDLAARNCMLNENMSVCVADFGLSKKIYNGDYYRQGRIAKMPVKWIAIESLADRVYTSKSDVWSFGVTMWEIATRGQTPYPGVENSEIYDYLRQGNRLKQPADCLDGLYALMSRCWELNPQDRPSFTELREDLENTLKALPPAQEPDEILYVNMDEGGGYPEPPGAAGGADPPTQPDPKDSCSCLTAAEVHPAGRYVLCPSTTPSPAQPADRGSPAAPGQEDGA
In words: AXL kinase mobility shift assay. Format: biochemical. As for the experimental part: as §1

Each structure is given as a SMILES string.

Sequence of c-Kit (P10721 26-976): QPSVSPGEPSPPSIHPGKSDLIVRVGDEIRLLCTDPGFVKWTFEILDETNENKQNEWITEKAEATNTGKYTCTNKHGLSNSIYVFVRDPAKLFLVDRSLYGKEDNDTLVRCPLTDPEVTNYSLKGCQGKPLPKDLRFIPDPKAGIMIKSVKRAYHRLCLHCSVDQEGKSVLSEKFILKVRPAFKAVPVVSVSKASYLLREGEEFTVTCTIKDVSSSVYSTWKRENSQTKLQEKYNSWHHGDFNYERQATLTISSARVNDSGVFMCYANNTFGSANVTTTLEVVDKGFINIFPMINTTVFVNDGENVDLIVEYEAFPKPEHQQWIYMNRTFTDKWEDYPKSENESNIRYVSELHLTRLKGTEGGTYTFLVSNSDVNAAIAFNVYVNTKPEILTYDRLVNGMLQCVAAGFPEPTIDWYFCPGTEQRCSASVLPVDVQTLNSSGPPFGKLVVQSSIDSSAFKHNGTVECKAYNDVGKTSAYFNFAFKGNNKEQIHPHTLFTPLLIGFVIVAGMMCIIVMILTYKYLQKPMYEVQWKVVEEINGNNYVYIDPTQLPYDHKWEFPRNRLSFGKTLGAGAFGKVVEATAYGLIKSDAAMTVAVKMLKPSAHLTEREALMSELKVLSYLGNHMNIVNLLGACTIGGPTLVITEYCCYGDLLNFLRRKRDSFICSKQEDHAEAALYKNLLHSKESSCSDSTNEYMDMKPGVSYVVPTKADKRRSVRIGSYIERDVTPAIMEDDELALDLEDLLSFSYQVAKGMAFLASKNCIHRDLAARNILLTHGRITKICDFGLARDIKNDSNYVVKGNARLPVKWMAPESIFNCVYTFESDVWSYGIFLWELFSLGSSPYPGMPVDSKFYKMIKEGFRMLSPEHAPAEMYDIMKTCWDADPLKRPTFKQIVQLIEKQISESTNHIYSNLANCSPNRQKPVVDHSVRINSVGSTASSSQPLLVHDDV
Sequence of HPK1 (MAP4K1) (Q92918 whole entry, species assumed): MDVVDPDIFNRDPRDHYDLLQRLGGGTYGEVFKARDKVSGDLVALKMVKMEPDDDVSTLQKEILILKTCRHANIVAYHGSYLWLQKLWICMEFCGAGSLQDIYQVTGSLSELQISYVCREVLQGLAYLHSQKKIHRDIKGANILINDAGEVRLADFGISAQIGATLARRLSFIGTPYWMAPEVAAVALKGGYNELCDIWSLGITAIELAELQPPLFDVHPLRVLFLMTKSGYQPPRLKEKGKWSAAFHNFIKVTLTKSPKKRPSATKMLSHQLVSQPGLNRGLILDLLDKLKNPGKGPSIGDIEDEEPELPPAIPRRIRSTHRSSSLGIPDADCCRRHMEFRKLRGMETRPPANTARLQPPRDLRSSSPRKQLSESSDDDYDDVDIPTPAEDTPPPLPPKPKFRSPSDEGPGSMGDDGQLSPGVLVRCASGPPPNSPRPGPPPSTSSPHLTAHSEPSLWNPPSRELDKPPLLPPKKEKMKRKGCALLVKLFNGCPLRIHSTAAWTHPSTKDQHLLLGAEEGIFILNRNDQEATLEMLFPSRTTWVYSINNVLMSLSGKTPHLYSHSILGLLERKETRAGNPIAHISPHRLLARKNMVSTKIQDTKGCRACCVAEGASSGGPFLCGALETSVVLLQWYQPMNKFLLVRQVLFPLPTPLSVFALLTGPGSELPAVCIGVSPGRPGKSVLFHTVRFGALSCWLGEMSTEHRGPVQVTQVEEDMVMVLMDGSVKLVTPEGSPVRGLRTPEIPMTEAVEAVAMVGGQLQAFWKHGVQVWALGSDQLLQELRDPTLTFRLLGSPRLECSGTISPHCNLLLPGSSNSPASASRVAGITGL

`Cc1cc(F)c(NC(=O)c2cc(C(F)(F)F)ccn2)cc1C1=Cc2cnc(NC3COC3)nc2N2CCN=C12` [Compound 178, N-(2-fluoro-4-methyl-5-(2-(oxetan-3-ylamino)-8,9-dihydroimidazo[1′,2′:1,6]pyrido[2,3-d]pyrimidin-6-yl)phenyl)-4-(trifluoromethyl)picolinamide] gave an IC50 at HPK1 (MAP4K1) of less than 0.1 µM. On c-Kit, the IC50 lay in the range of 0.1 to 10 µM. In data set [1] (PO 25 mg/kg), the F came to 66.7 ± 14.3%. Also, in data set [1] (mouse, plasma, IV 5 mg/kg), the Vd came out at 4.06 ± 0.37 L/kg and the half-life was 2.76 ± 0.22 h. In data set [1] (mouse, plasma, IV 5 mg/kg, read-out: Clp), the clearance was 17 ± 0.3 mL/min/kg. For the same molecule, in data set [1] (mouse, plasma, PO 25 mg/kg), the AUC was determined as 16300 ± 3490 ng·h/mL, the Cmax came out at 2560 ± 505 ng/mL and the Tmax is 2 h.

Turning to `Cc1ccc(NC(=O)c2cc(C(C)(C)F)ccn2)cc1C1=Cc2cnc(Nc3cnn(C)c3)nc2N2CCN=C12` [Compound 196, 4-(2-fluoropropan-2-yl)-N-(4-methyl-3-(2-((1-methyl-1H-pyrazol-4-yl)amino)-8,9-dihydroimidazo[1′,2′:1,6]pyrido[2,3-d]pyrimidin-6-yl)phenyl)picolinamide], the IC50 at c-Kit is less than 0.1 µM. Moreover, in data set [1] (mouse, plasma, PO 25 mg/kg), the AUC was 11300 ± 3010 ng·h/mL, the peak level (Cmax) was 1060 ± 108 ng/mL and the Tmax was determined as 1.33 ± 0.58 h. Regarding `Cc1ccc(Nc2ncc3c(n2)N2CCN=C2C(c2cc(NC(=O)c4cn(C(C)C)c(=O)n(-c5ccc(F)cc5)c4=O)ccc2C)=C3)cn1` [Compound 266, 3-(4-fluorophenyl)-1-isopropyl-N-(4-methyl-3-(2-((6-methylpyridin-3-yl)amino)-8,9-dihydroimidazo[1′,2′:1,6]pyrido[2,3-d]pyrimidin-6-yl)phenyl)-2,4-dioxo-1,2,3,4-tetrahydropyrimidine-5-carboxamide], the IC50 on Axl was more than 10 µM.

`CNc1ncc2c(n1)N1CCN=C1C(c1ccc(C(=O)Nc3cc(C(F)(F)F)ccn3)c(F)c1)=C2` [Compound 270, 2-fluoro-4-(2-(methylamino)-8,9-dihydroimidazo[1′,2′:1,6]pyrido[2,3-d]pyrimidin-6-yl)-N-(4-(trifluoromethyl)pyridin-2-yl)benzamide]: the IC50 at Axl was more than 10 µM. On the same count and under the same terms, the value for `CNc1ncc2c(n1)N1CCN=C1C(c1ccc(C(=O)Nc3cc(C(F)(F)F)ccn3)cc1)=C2` [Compound 273, 4-(2-(methylamino)-8,9-dihydroimidazo[1′,2′:1,6]pyrido[2,3-d]pyrimidin-6-yl)-N-(4-(trifluoromethyl)pyridin-2-yl)benzamide] was 0.1 to 10 µM. The same measure, in the same setting: the value for `CNc1ncc2c(n1)N1CCN=C1C(c1ccc(C(=O)Nc3ccccc3Cl)cc1)=C2` [Compound 275, N-(2-chlorophenyl)-4-(2-(methylamino)-8,9-dihydroimidazo[1′,2′:1,6]pyrido[2,3-d]pyrimidin-6-yl)benzamide] was 0.1 to 10 µM; that for `CNc1ncc2c(n1)N1CCN=C1C(c1cc(NS(=O)(=O)c3ccccc3Cl)c(F)cc1C)=C2` [Compound 286, 2-chloro-N-(2-fluoro-4-methyl-5-(2-(methylamino)-8,9-dihydroimidazo[1′,2′:1,6]pyrido[2,3-d]pyrimidin-6-yl)phenyl)benzenesulfonamide] was more than 10 µM; that for `CNc1ncc2c(n1)N1CCN=C1C(c1cc(NS(=O)(=O)c3ccccn3)c(F)cc1C)=C2` [Compound 292, N-(2-fluoro-4-methyl-5-(2-(methylamino)-8,9-dihydroimidazo[1′,2′:1,6]pyrido[2,3-d]pyrimidin-6-yl)phenyl)pyridine-2-sulfonamide] was more than 10 µM. Same read-out and setting: the value for `CNc1ncc2c(n1)N1CCN=C1C(c1cc(NS(=O)(=O)Cc3ccccc3)c(F)cc1C)=C2` [Compound 293, N-(2-fluoro-4-methyl-5-(2-(methylamino)-8,9-dihydroimidazo[1′,2′:1,6]pyrido[2,3-d]pyrimidin-6-yl)phenyl)-1-phenylmethanesulfonamide] was more than 10 µM; that for `CNc1ncc2c(n1)N1CCN=C1C(c1c(C)ccc(NS(=O)(=O)c3c(Cl)cccc3Cl)c1F)=C2` [Compound 296, 2,6-dichloro-N-(2-fluoro-4-methyl-3-(2-(methylamino)-8,9-dihydroimidazo[1′,2′:1,6]pyrido[2,3-d]pyrimidin-6-yl)phenyl)benzenesulfonamide] was more than 10 µM. As for `CNc1ncc2c(n1)N1CCN=C1C(c1c(C)ccc(NS(=O)(=O)c3c(F)cccc3F)c1F)=C2` [Compound 297, 2,6-difluoro-N-(2-fluoro-4-methyl-3-(2-(methylamino)-8,9-dihydroimidazo[1′,2′:1,6]pyrido[2,3-d]pyrimidin-6-yl)phenyl)benzenesulfonamide], the IC50 on Axl was more than 10 µM. As for `CNc1ncc2c(n1)N1CCN=C1C(c1c(C)ccc(NS(=O)(=O)c3ccccc3C(F)(F)F)c1F)=C2` [Compound 298, N-(2-fluoro-4-methyl-3-(2-(methylamino)-8,9-dihydroimidazo[1′,2′:1,6]pyrido[2,3-d]pyrimidin-6-yl)phenyl)-2-(trifluoromethyl)benzenesulfonamide], the IC50 on Axl was more than 10 µM.

On to `CNc1ncc2c(n1)N1CCN=C1C(c1c(C)ccc(NS(=O)(=O)c3ccccc3OC(F)(F)F)c1F)=C2` [Compound 299, N-(2-fluoro-4-methyl-3-(2-(methylamino)-8,9-dihydroimidazo[1′,2′:1,6]pyrido[2,3-d]pyrimidin-6-yl)phenyl)-2-(trifluoromethoxy)benzenesulfonamide], for which the half-inhibitory concentration (IC50) at Axl is more than 10 µM.

As to `Cc1ccc(NS(=O)(=O)c2cc(F)ccc2F)c(F)c1C1=Cc2cnc(NC3COC3)nc2N2CCN=C12` [Compound 302, 2,5-difluoro-N-(2-fluoro-4-methyl-3-(2-(oxetan-3-ylamino)-8,9-dihydroimidazo[1′,2′:1,6]pyrido[2,3-d]pyrimidin-6-yl)phenyl)benzenesulfonamide], the IC50 at Axl is more than 10 µM. Same read-out and setting: the same measure for `Cc1ccc(NS(=O)(=O)c2ccccc2Cl)c(F)c1C1=Cc2cnc(NC3COC3)nc2N2CCN=C12` [Compound 303, 2-chloro-N-(2-fluoro-4-methyl-3-(2-(oxetan-3-ylamino)-8,9-dihydroimidazo[1′,2′:1,6]pyrido[2,3-d]pyrimidin-6-yl)phenyl)benzenesulfonamide]: more than 10 µM. Consider `CNc1ncc2c(n1)N1CCN=C1C(Oc1ccc(NC(=O)C3(C(=O)Nc4ccc(F)cc4)CC3)cc1)=C2` [Compound 345, N-(4-fluorophenyl)-N-(4-((2-(methylamino)-8,9-dihydroimidazo[1′,2′:1,6]pyrido[2,3-d]pyrimidin-6-yl)oxy)phenyl)cyclopropane-1,1-dicarboxamide], for which the IC50 at Axl is 0.1 to 10 µM.
